Drawing on patent publication US10947210B2 (priority 2015, dated 2021), this text covers IC50 and EC50 for twelve molecules.

Read-outs that look alike come from different tables or passages of the source.

Experiment [1] concerns the target HCV RNA-dependent RNA polymerase (NS5B) (Hepatitis C virus genotype 1b (isolate BK) (HCV), UniProt P26663). Kind of experiment: RNA-Dependent RNA HCV NS5B (polymerase) Assay and IC50 Determination. The following applies: purified HCV NS5B polymerase, polyA:U16 substrate, 32P-UTP incorporation. In kind it is biochemical. In outline: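 Purified NS5B was incubated with 0.5 uM polyA:U16, 10 μM UTP plus ^32P-UTP in 50 mM Hepes-KOH pH 7.5, 5 mM MgCl2, 5 mM DTT, 2% glycerol and 0.01% Triton X-100. Inhibitor reactions ran 60 min at 37° C, and radiolabelled RNA product was quantified after filter capture. IC50 values were obtained from concentration series.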

Experiment [2] has as its system HCV subgenomic RNA replicon in Huh-luc/neo-ET cells. In words: HCV Replicon Assay and EC50 Determination. It is filed as cell-based. The following applies: Hepatitis C virus, 72 hours, luciferase reporter activity. Here is the method:
HCV Replicon Assay and EC50 Determination.
HCV replicon assay is based on the luciferase reporter cell line (Huh-luc/neo-ET). This reporter cell line is a human liver carcinoma cell line (Huh-7) stably transfected with an autonomously replicating bicistronic HCV subgenomic RNA replicon (Lohmann et al., 1999, Science, 285, 110-113). Inhibition of HCV RNA replication was monitored through analysis of reporter luciferase activity. Briefly, HCV replicon cells were incubated with inhibitors for 72 hours at 37° C. After the incubation, duplicate plates were treated and incubated in parallel for assessment of cellular toxicity by XTT staining and anti-HCV activity by measurement of luciferase reporter activity. Either human interferon alpha 2B or ribavirin was used as a reference compound. EC50 values were determined using GraFit (Erithaus software) or Excel.
Table 2 presents EC50 data obtained using this HCV replicaon assay to test representative compounds. Data are presented as follows: “+++” means <0.1 μM; “++” means ≥0.1 μM and <1.0 μM; “+” means ≥1.0 μM.
On the technique in general: A replicon is a self-replicating genome or part of one, used to study replication in cells.

HCV RNA-dependent RNA polymerase (NS5B), sequence (P26663 2420-3010): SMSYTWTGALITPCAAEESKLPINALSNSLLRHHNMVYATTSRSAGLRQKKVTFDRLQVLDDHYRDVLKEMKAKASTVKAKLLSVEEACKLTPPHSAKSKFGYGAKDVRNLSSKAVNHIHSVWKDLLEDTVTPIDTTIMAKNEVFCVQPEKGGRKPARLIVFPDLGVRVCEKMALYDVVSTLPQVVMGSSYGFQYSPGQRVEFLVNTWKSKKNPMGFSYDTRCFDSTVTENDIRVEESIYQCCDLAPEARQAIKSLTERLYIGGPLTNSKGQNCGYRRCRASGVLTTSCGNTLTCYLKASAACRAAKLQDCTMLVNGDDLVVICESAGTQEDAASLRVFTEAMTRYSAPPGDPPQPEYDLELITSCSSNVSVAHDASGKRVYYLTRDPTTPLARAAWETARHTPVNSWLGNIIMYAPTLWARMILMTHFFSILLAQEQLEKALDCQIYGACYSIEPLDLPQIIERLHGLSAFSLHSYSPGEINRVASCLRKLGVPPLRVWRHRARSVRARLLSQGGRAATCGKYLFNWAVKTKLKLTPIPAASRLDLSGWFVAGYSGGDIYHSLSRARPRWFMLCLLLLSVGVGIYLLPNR

One may read the IC50 as the midpoint of a concentration-inhibition curve. For orientation: EC50 means the concentration that produces a half-maximal response. A high value points to a need for much substance. `CNC(=O)c1c(-c2ccc(F)cc2)oc2cc(N(CCOCCOCc3cccc(C(C)=O)c3)S(C)(=O)=O)c(C3CC3)cc12` [Compound 02-8A, 6-(N-(2-(2-(3-Acetylbenzyloxy)-ethoxy)-ethyl)-methylsulfonamido)-5-cyclopropyl-2-(4-fluorophenyl)-N-methylbenzofuran-3-carboxamide] displayed a 50% inhibitory concentration (IC50) in experiment [1] (IC50 (μM)) above 1 µM. The same molecule gave an EC50 in experiment [2] below 0.1 µM.

Turning to `CNC(=O)c1c(-c2ccc(F)cc2)oc2cc(N(CCOCCOCc3ccc(OC)c(C(=O)O)c3)S(C)(=O)=O)c(C3CC3)cc12` [Compound 17B-8, 5-[2-(2-{[5-Cyclopropyl-2-(4-fluoro-phenyl)-3-methylcarbamoyl-benzofuran-6-yl]-methanesulfonyl-amino}-ethoxy)-ethoxymethyl]-2-methoxy-benzoic Acid], in experiment [1] (read-out: IC50), the half-maximal inhibitory concentration (IC50) lay in the range of 0.1 to 1 µM. This molecule also showed an EC50 in experiment [2] of 0.1 to 1 µM.

`CNC(=O)c1c(-c2ccc(F)cc2)oc2cc(N(CCOCCOCCOCC(=O)NO)S(C)(=O)=O)c(C3CC3)cc12` [Compound 23-6C, 5-Cyclopropyl-2-(4-fluoro-phenyl)-6-({2-[2-(2-hydroxycarbamoylmethoxy-ethoxy)-ethoxy]-ethyl}-methanesulfonyl-amino)-benzofuran-3-carboxylic Acid Methylamide]: in experiment [1] (IC50 (μM)), the IC50 fell in the range of 0.1 to 1 µM. This molecule registered a 50% effective concentration (EC50) in experiment [2] below 0.1 µM.

With `CNC(=O)c1c(-c2ccc(F)cc2)oc2cc(N(CCOCCOCc3cccc(C(=O)O)c3)S(C)(=O)=O)c(C3CC3)cc12` [Compound 06-7C, 3-[2-(2-{[5-Cyclopropyl-2-(4-fluoro-phenyl)-3-methylcarbamoyl-benzofuran-6-yl]-methanesulfonyl-amino}-ethoxy)-ethoxymethyl]-benzoic Acid], the IC50 in experiment [1] (read-out: IC50) lay within 0.1 to 1 µM. The same molecule gave a concentration for a half-maximal effect (EC50) in experiment [2] below 0.1 µM.

Consider `CNC(=O)c1c(-c2ccc(F)cc2)oc2cc(N(CCOCCOCCOCC(=O)O)S(C)(=O)=O)c(C3CC3)cc12` [Compound 23-6A, {2-[2-(2-{[5-Cyclopropyl-2-(4-fluoro-phenyl)-3-methylcarbamoyl-benzofuran-6-yl]-methanesulfonyl-amino}-ethoxy)-ethoxy]-ethoxy}-acetic Acid], for which, in experiment [1] (read-out: IC50), the 50% inhibitory concentration (IC50) is 0.1 to 1 µM. This molecule also displayed a 50% effective concentration (EC50) in experiment [2] of 0.1 to 1 µM.

As to `CNC(=O)c1c(-c2ccc(F)cc2)oc2cc(N(CCOCCOCCOC(C(=O)O)c3ccccc3)S(C)(=O)=O)c(C3CC3)cc12` (stereo not drawn) [Compound 25-5, {2-[2-(2-{[5-Cyclopropyl-2-(4-fluoro-phenyl)-3-methylcarbamoyl-benzofuran-6-yl]-methanesulfonyl-amino}-ethoxy)-ethoxy]-ethoxy}-phenyl-acetic Acid], in experiment [1] (read-out: IC50), the 50% inhibitory concentration (IC50) is 0.1 to 1 µM. The 50% effective concentration (EC50) in experiment [2] was 0.1 to 1 µM.

As for `CNC(=O)c1c(-c2ccc(F)cc2)oc2cc(N(CCOCCOCc3ccc(C(=O)O)cc3)S(C)(=O)=O)c(C3CC3)cc12` [Compound 06-7B, 4-[2-(2-{[5-Cyclopropyl-2-(4-fluoro-phenyl)-3-methylcarbamoyl-benzofuran-6-yl]-methanesulfonyl-amino}-ethoxy)-ethoxymethyl]-benzoic Acid], the IC50 in experiment [1] (read-out: IC50) lay within 0.1 to 1 µM. This molecule also registered an EC50 in experiment [2] of 0.1 to 1 µM.

As for `CNC(=O)c1c(-c2ccc(F)cc2)oc2cc(N(CCOCCOCc3cccc(C(=O)/C=C(\O)C(=O)O)c3)S(C)(=O)=O)c(C3CC3)cc12` [Compound 02-10A, 4-{3-[2-(2-{[5-Cyclopropyl-2-(4-fluoro-phenyl)-3-methylcarbamoyl-benzofuran-6-yl]-methanesulfonyl-amino}-ethoxy)-ethoxymethyl]-phenyl}-2-hydroxy-4-oxo-but-2-enoic Acid], in experiment [1] (read-out: IC50), the IC50 fell in the range of 0.1 to 1 µM. This molecule returned an EC50 in experiment [2] below 0.1 µM.

As to `CNC(=O)c1c(-c2ccc(F)cc2)oc2cc(N(CC(=O)NC(C)(C)C(=O)NCc3cccc(C(=O)C=C(O)C(=O)O)c3)S(C)(=O)=O)c(C3CC3)cc12` [Compound 09-14C, 4-(3-{[2-(2-{[5-Cyclopropyl-2-(4-fluoro-phenyl)-3-methylcarbamoyl-benzofuran-6-yl]-methanesulfonyl-amino}-acetylamino)-2-methyl-propionylamino]-methyl}-phenyl)-2-hydroxy-4-oxo-but-2-enoic Acid], in experiment [1] (read-out: IC50), the IC50 was above 1 µM. In experiment [2], this molecule showed a half-maximal effective concentration (EC50) of 0.1 to 1 µM.

As for `CNC(=O)c1c(-c2ccc(F)cc2)oc2cc(N(CCCCCCCc3ccc(C(=O)O)cc3)S(C)(=O)=O)c(C3CC3)cc12` [Compound 13-8D, 4-(7-{[5-Cyclopropyl-2-(4-fluoro-phenyl)-3-methylcarbamoyl-benzofuran-6-yl]-methanesulfonyl-amino}-heptyl)-benzoic Acid], in experiment [1] (read-out: IC50), the half-maximal inhibitory concentration (IC50) was in the range of 0.1 to 1 µM. Moreover, the 50% effective concentration (EC50) in experiment [2] was below 0.1 µM.

`CNC(=O)c1c(-c2ccc(F)cc2)oc2cc(N(CCCCOCCc3ccc(C(=O)O)cc3)S(C)(=O)=O)c(C3CC3)cc12` [Compound 13-8C, 4-(2-(4-(N-(5-cyclopropyl-2-(4-fluorophenyl)-3-(methylcarbamoyl)benzofuran-6-yl)-methylsulfonamido)butoxy)-ethyl)benzoic Acid]: the IC50 in experiment [1] (read-out: IC50) lay within 0.1 to 1 µM. The EC50 in experiment [2] is below 0.1 µM.

In the case of `CNC(=O)c1c(-c2ccc(F)cc2)oc2cc(N(CC(=O)NC3(C(=O)NCc4cccc(C(=O)C=C(O)C(=O)O)c4)CCCC3)S(C)(=O)=O)c(C3CC3)cc12` [Compound 09-14E, 4-[3-({[1-(2-{[5-Cyclopropyl-2-(4-fluoro-phenyl)-3-methylcarbamoyl-benzofuran-6-yl]-methanesulfonyl-amino}-acetylamino)-cyclopentanecarbonyl]-amino}-methyl)-phenyl]-2-hydroxy-4-oxo-but-2-enoic Acid], the IC50 in experiment [1] (read-out: IC50) is above 1 µM. Besides, the EC50 in experiment [2] is 0.1 to 1 µM.
